In patent publication EP1656941A1, “Compositions for the treatment of diabetic nephropathy” (Clinigene International Private Limited, priority 2004, dated 2006):

What was measured:
[1] = system: patients with diabetic nephropathy; test: 24-hour urine protein (proteinuria), Pyrogallol Red / SDS reagent method; open-labeled, randomized three-arm study; assay type: in vivo, human; design: 24h Urine protein (Mean) / Difference 24h Urine protein: unit not given here
Source text: The study of the effect of MMF and lisinopril for the treatment of diabetic nephropathy was designed in the following manner.
In this study, a total of 30 patients were planned of which 18 were randomized and subjected to enter into one of the studies in which the patient groups each received MMF alone, lisinopril alone, or a combination of both MMF and lisinopril.
The primary end-point for this study was the proteinuria value obtained from the patients via 24-hour urine protein which was measured using the Calorimetric method Pyrogallol Red / SDS liquid stable single reagent.
The inclusion of a patient is based on the following criteria. Type 1 and type 2 diabetic patients; male and postmenopausal (Natural & surgical) female diabetic patients; age 18-65 years; micral test positive (albumin excretion rate 20-200 µgm/min); patient must be able to swallow the oral medications to be used in the study; patient must sign an informed consent prior to the study.
The exclusion of a subject from the study is based on the following criteria: Premenopausal female patients of any age; clinical evidence of SLE; uncontrolled diabetes (Fasting Blood Glucose≥ 160 mg/dl or HbA1c ≥ 7.5%); uncontrolled hypertension (Systolic blood pressure ≥ 160 mm Hg and/or diastolic blood pressure ≥ 100 mm Hg); impaired renal function with serum creatinine ≥ 1.4 mg/dl; well-documented history of Henoch-Schonlein Purpura (with an exception to previous nonspecific abdominal pain or rash ― which is not an exclusion criteria); clinical evidence of cirrhosis or chronic active liver disease; abnormal laboratory values at the time of study entry; absolute neutrophil count (ANC) < […], or hematocrit (HCT) < 28%; AER > 200 µgm/min; BUN ≥ 25 mg/dl; known contraindication or allergy to the administration of MMF or lisinopril; history of significant gastrointestinal disorder, e.g. severe chronic diarrhea or active peptic ulcer disease; active systemic infection or history of serious infection within one month of entry; known infection with HIV, hepatitis B or hepatitis C; other major organ system disease or malignancy other than skin cancer fully excised more than 5 years prior to entry; current or prior treatment with MMF or azathioprine; current or recent (within 30 days) exposure to any investigational drug.
(§1) Evaluation of the effects of MMF or ACE inhibitors alone or in combination on the status of proteinuria in patients with diabetic nephropathy was an open-labeled, randomized study. This study consisted of three arms as shown below. • 1. treatment with MMF alone • 2. treatment with combination of MMF and lisinopril • 3. treatment with lisinopril alone In addition, there were three phases of the study as shown below.
Phase 1: Screening Phase (Duration 1 to 4 weeks): 303 patients were screened on their first visit (V1), based on the given inclusion and exclusion criteria to determine if they were eligible for the study and to assess likelihood of compliance with study protocol. Micral test for every patient was done to determine the eligibility.
(§2) Phase 2: Treatment Phase (6 months): Every patient who qualified the screening phase was assigned one of the treatment arms. During this phase, patients were monitored closely and efficacy and safety parameters are assessed every month.
• 1. MMF: The dose of MMF given during the study was 500 mg per oral twice a day throughout the study. • 2. Lisinopril: The starting dose of lisinopril given in the study was 5 mg per oral twice a day. In case of hypertensive patients, the dose could be titrated upwards based on investigator's discretion, which in turn was based on the patient's "safety end point". • 3. MMF + Lisinopril: In the patients who received both the drugs, the dose of MMF was 500 mg per oral twice a day and lisinopril was 5 mg per oral twice a day. […]

[2] = system: patients with diabetic nephropathy; test: Estimated GFR by the Cockcroft - Gault formula; open-labeled, randomized three-arm study; assay type: in vivo, human
Procedure: A secondary end-point for this study was the GFR value obtained for each patient. This Secondary Endpoint included Estimated GFR, which was calculated using the following formulae: […]
Measurement of GFR Once all data was collected, Glomerular Filtration Rate GFR) was determined by the Cockcroft - Gault formula.
Estimated GFR(inml/min) = ([140−age(in years)∗weight(in Kg))/(Serum Creatinie level(inμmol/L)) [formula]
Estimated GFR(inml/min) = (1.23∗[140−age(in years)∗weight(in Kg))/(Serum Creatinie level(inμmol/L)) [formula]
as §1, §2
• 1. MMF: The dose of MMF given during the study was 500 mg per oral twice a day throughout the study. • 2. Lisinopril: The starting dose of lisinopril given in the study was 5 mg per oral twice a day. In case of hypertensive patients, the dose could be titrated upwards based on investigator's discretion, which in turn was based on the patient's "safety end point". • 3. MMF + Lisinopril: In the patients who received both the drugs, the dose of MMF was 500 mg per oral twice a day and lisinopril was 5 mg per oral twice a day. In the case of hypertensive patients, the dose of lisinopril could be titrated upwards based on investigator's discretion, which in turn was based on the patient's "safety end point".

[3] = system: patients with IgA nephropathy; settings: MMF 1-1.5g per day vs 30-40 mg of Prednisone per day; followed for seventy two weeks; preliminary report; cited from earlier work
Diabetic rats = settings: Utimura et. al. 2003, cited from earlier work
[4] = system: patients with type 1 diabetes mellitus and diabetic nephropathy; settings: Lewis et. al. 1993; cited from earlier work
[5] = Benefited patients, 1 month after treatment at V3, lisinopril 5mg twice daily
[6] = Benefited patients, 3 month after treatment at V4, lisinopril 5mg twice daily
[7] = Benefited patients, 6 month after treatment at V5, lisinopril 5mg twice daily
[8] = Benefited patients, V3 (1 month) versus baseline V2, lisinopril 5mg twice daily
[9] = Benefited patients, V4 (3 month) versus baseline V2, lisinopril 5mg twice daily
[10] = Benefited patients, V5 (6 month) versus baseline V2, lisinopril 5mg twice daily
[11] = Not benefited patients, 1 month after treatment at V3, lisinopril 5mg twice daily
[12] = Not benefited patients, 3 month after treatment at V4, lisinopril 5mg twice daily
[13] = Not benefited patients, 6 month after treatment at V5, lisinopril 5mg twice daily
[14] = Not benefited patients, V3 (1 month) versus baseline V2, lisinopril 5mg twice daily
[15] = Not benefited patients, V4 (3 month) versus baseline V2, lisinopril 5mg twice daily
[16] = Not benefited patients, V5 (6 month) versus baseline V2, lisinopril 5mg twice daily
[17] = Benefited patients, 1 month after treatment at V3, MMF 500 mg per oral twice a day
[18] = Benefited patients, 3 month after treatment at V4, MMF 500 mg twice daily
[19] = Benefited patients, V3 (1 month) versus baseline V2, MMF 500 mg per oral twice a day
[20] = Benefited patients, V4 (3 month) versus baseline V2, MMF 500 mg twice daily
[21] = Not benefited patients, 1 month after treatment at V3, MMF 500 mg per oral twice a day
[22] = Not benefited patients, 3 month after treatment at V4, MMF 500 mg twice daily
[23] = Not benefited patients, V3 (1 month) versus baseline V2, MMF 500 mg per oral twice a day

## NCCCC[C@H](N[C@@H](CCc1ccccc1)C(=O)O)C(=O)N1CCC[C@H]1C(=O)O [lisinopril]
[1]; [5]
  24h Urine protein (Mean): 236.66
[1]; [6]
  24h Urine protein (Mean): 161.15
[1]; [7]
  24h Urine protein (Mean): 248.4
[1]; [8]
  Difference 24h Urine protein: -133.6
[1]; [9]
  Difference 24h Urine protein: -268.75
[1]; [10]
  Difference 24h Urine protein: -239.6
[1]; [11]
  24h Urine protein (Mean): 211.25
[1]; [12]
  24h Urine protein (Mean): 289.2
[1]; [13]
  24h Urine protein (Mean): 626
[1]; [14]
  Difference 24h Urine protein: 53.73
[1]; [15]
  Difference 24h Urine protein: 101.47
[1]; [16]
  Difference 24h Urine protein: 254.2
[1]; at the end of 1 month (V3 vs V2), 5mg of lisinopril twice daily
  reduced proteinuria in % of the patients: 42%
[1]; at the end of 3 month (V4 vs V2), 5mg of lisinopril twice daily
  reduced proteinuria in % of the patients: 40%
[1]; at the end of 6 month (V5 vs V2), 5mg of lisinopril twice daily
  reduced proteinuria in % of the patients: 50%
[2]; [5]
  GFR (Mean): 79.16 mL/min
[2]; [6]
  GFR (Mean): 89.55 mL/min
[2]; [7]
  GFR (Mean): 105.9 mL/min
[2]; [8]
  Difference GFR: -0.09 mL/min
[2]; [9]
  Difference GFR: 7.95 mL/min
[2]; [10]
  Difference GFR: 28.5 mL/min
[2]; [11]
  GFR (Mean): 63.97 mL/min
[2]; [12]
  GFR (Mean): 68.76 mL/min
[2]; [13]
  GFR (Mean): 76.4 mL/min
[2]; [14]
  Difference GFR: 1.91 mL/min
[2]; [15]
  Difference GFR: 0.13 mL/min
[2]; [16]
  Difference GFR: -9.4 mL/min

## COc1c(C)c2c(c(O)c1C/C=C(\C)CCC(=O)OCCN1CCOCC1)C(=O)OC2 [MMF, mycophenolate mofetil]
[1]; [17]
  24h Urine protein (Mean): 112.73
[1]; [18]
  24h Urine protein (Mean): 260.8
[1]; [19]
  Difference 24h Urine protein: -203.93
[1]; [20]
  Difference 24h Urine protein: -136.6
[1]; [21]
  24h Urine protein (Mean): 696.3
[1]; [22]
  24h Urine protein (Mean): 305.5
[1]; [23]
  Difference 24h Urine protein: 361.7
[1]; after 1 month of treatment (V3 vs V2), MMF 500 mg per oral twice a day
  reduced proteinuria in % of the patients: 67%
[1]; at V4 at the end of 3 months, 500 mg of MMF twice daily
  reduced proteinuria in % of the patients: 67%
[2]; [17]
  GFR (Mean): 89.3 mL/min
[2]; [18]
  GFR (Mean): 81.85 mL/min
[2]; [19]
  Difference GFR: 0.27 mL/min
[2]; [20]
  Difference GFR: -1.35 mL/min
[2]; [21]
  GFR (Mean): 75.26 mL/min
[2]; [22]
  GFR (Mean): 49.9 mL/min
[2]; [23]
  Difference GFR: 4.40 mL/min
[2]; Not benefited patients, V4 (3 month) versus baseline V2, MMF 500 mg twice daily
  Difference GFR: 49.9 mL/min
[3]
  decreasing proteinuria, protecting renal function and also decreasing blood lipid levels: superior to Prednisone
Diabetic rats; 8 months
  albuminuria, glomerular macrophage infiltration and glomerulosclerosis: prevent
Diabetic rats
  effect on blood pressure, glomerular dynamics or blood glucose levels: no effect

## C[C@H](CS)C(=O)N1CCC[C@H]1C(=O)O [Captopril]
[4]
  progression of renal disease: prevents or delays
